Assay results taken from patent publication US20070142356A1, “Association of a sinus node If curent inhibitor and a calcium inhibitor, and pharmaceutical compositions containing it” (LES LABORATOIRES SERVIER, priority 2005, published 2007).

Tested on: patients being treated with dihydropyridine type calcium antagonists who still complained of painful angina pectoris attacks
Experiment: Clinical studies 019 and 021: angina attacks in patients on dihydropyridines given concomitant ivabradine
Format: in vivo
Conditions: for Change in the number of angina pectoris attacks, %: after 1 year of ivabradine versus inclusion; for Number of angina pectoris attacks (per week), after treatment: patients on dihydropyridines on inclusion, ivabradine for 1 year
Description: Two clinical studies carried out in patients being treated with dihydropyridine type calcium antagonists who still complained of painful angina pectoris attacks (despite the calcium antagonist) have shown that concomitant treatment with ivabradine makes it possible to reduce these attacks very substantially (by about 60%).

SMILES: COc1cc2c(cc1OC)CC(=O)N(CCCN(C)C[C@H]1Cc3cc(OC)c(OC)cc31)CC2 [ivabradine, 3-{3-[{[(7S)-3,4-dimethoxy-bicyclo[4.2.0]octa-1,3,5-trien-7-yl]methyl}(methyl)amino]propyl}-7,8-dimethoxy-1,3,4,5-tetrahydro-2H-3-benzazepin-2-one]
- Change in the number of angina pectoris attacks, % (Study 019, n = 27): −61.4%
- Number of angina pectoris attacks (per week), after treatment (Study 019, n = 27): 0.7 ± 1.3 per week
- Change in the number of angina pectoris attacks, % (Study 021, n = 114): −58.9%
- Number of angina pectoris attacks (per week), after treatment (Study 021, n = 114): 0.9 ± 2.9 per week
- Reduction of painful angina pectoris attacks (two clinical studies, ivabradine concomitant with dihydropyridine calcium antagonist): about 60%
